Measurements taken from patent US5776433A, “Flunisolide aerosol formulations” (Minnesota Mining and Manufacturing Company, priority 1995, dated 1998).

Type: physicochemical
From the text: This intermediate level of solubility can lead to particle size increase of the drug in a suspension formulation. It is well known that particles having a diameter of greater than about 10 μm are not suitable for inhalation to the lung. Therefore particle size increase can threaten the utility of a pharmaceutical aerosol formulation.

## CC1(C)O[C@@H]2C[C@H]3[C@@H]4C[C@H](F)C5=CC(=O)C=C[C@]5(C)[C@H]4[C@@H](O)C[C@]3(C)[C@]2(C(=O)CO)O1 [flunisolide hemihydrate, 6α-fluoro-11β, 16α, 17,21-tetrahydroxypregna-1,4-diene-3,20-dione cyclic 16,17-acetal with acetone]
  solubility in 1:1 blend of HFA 134a and HFA 227: about 0.007 % by weight
  solubility in HFA 134a: about 0.006 % by weight
  solubility in HFA 227: about 0.004 % by weight
